These results are taken from patent US10138292B2, “Cell culture medium” (BIOLAMINA AB, priority 2010, dated 2018).

Where only a bound is given, the exact number is not on record here.

For series [1], the system named is human ES cells. Briefly: Cell adhesion assay, 1 hour (Example 1). Particulars: O3 medium without any additives, without Y-27632. The class given is cell-based. As to the method:
(§1) Ninety-six-well tissue cell culture plates were coated overnight at 4° C. with sterile solutions of the ECM proteins mouse LN-111 (Invitrogen), human recombinant LN-511, and human recombinant LN-521, all at a concentration of 30 μg/ml (5 μg/cm^2). For control cells, BD Matrigel™ hESC qualified (BD Biosciences) was used according to the manufacturer's instructions.
(§2) The assay was performed as described (Extracellular Matrix Protocols, 2000). Briefly, 96-well plates were coated by extracellular matrix proteins as described above and blocked by O3 medium containing bovine serum albumin. The ES cells were plated at a cell density of 600 cell/mm^2 upon extracellular matrix-coated plates and were left to adhere for either 1 hour or 1 day at the cell incubator. Non-adherent cells were washed away, and adherent cells were fixed for 20 min by 5% glutaraldehyde, stained by 0.1% Crystal Violet.

The next series deals with Integrin α6β1 (Homo sapiens, UniProt P05556+P23229). Particulars: cited from earlier work.
Chain of Integrin α6β1 (P23229 24-1130): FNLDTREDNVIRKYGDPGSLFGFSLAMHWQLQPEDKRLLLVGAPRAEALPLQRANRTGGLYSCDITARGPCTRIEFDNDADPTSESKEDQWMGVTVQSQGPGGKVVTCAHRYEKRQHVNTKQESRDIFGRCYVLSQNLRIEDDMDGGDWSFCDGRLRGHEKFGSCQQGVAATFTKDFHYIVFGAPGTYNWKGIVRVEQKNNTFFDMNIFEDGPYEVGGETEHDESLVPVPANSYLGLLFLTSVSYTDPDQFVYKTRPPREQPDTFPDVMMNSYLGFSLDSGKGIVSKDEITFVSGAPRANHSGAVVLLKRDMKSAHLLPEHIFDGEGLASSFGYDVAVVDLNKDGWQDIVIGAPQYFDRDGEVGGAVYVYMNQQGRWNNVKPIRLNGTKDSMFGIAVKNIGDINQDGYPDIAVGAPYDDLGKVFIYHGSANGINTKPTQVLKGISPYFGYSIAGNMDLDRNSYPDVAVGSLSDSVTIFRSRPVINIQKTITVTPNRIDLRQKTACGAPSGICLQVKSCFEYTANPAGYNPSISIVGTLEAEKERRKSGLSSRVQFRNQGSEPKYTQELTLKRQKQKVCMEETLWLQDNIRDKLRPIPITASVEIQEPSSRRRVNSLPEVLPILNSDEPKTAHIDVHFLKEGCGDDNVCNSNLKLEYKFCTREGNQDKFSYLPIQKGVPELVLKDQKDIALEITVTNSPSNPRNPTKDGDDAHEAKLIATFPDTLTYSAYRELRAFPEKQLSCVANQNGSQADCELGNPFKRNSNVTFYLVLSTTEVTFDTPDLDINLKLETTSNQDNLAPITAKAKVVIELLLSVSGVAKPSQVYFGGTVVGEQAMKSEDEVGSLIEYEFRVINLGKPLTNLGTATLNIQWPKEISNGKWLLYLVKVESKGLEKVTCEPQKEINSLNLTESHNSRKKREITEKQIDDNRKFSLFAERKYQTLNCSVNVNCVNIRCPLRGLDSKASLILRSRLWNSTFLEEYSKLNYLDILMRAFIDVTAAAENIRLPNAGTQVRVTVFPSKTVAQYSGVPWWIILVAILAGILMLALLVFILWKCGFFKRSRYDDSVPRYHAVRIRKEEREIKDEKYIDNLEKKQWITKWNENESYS
Chain of Integrin α6β1 (P05556 21-798): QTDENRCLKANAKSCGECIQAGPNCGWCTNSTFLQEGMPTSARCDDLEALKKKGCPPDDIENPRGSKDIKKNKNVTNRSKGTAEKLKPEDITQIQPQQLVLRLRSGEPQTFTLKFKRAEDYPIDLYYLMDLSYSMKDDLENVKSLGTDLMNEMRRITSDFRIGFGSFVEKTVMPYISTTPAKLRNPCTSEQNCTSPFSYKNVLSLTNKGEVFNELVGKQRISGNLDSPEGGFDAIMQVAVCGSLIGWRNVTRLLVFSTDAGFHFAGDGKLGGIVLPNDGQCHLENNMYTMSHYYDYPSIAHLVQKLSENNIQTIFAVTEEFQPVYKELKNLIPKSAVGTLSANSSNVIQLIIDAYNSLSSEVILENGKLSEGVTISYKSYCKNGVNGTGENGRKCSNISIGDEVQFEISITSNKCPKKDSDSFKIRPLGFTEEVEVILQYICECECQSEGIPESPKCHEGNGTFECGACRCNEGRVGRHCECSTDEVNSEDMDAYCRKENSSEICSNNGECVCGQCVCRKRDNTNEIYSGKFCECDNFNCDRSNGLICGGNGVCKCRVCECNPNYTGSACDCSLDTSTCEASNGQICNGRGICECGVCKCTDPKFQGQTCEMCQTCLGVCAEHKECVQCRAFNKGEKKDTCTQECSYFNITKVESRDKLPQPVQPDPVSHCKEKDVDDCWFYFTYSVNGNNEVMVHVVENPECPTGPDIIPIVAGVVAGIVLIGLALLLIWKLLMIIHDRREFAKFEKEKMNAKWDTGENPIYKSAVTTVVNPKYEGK
Series [2] has as its system hES cells. The series can be described thus: Clonal survival of individualized hES cells (Example 4). The class given is cell-based, human. The conditions noted are these: mTeSR1 medium, 250 cells per cm^2, 5 days, alkaline phosphatase staining. As to the method:
hES cells were plated in mTeSR1 medium on different coatings at a density of 250 cells per cm^2 and monitored after 5 days in culture using an alkaline phosphatase staining kit.
Next, combinations of laminin-521 and E-Cadherin were tested to determine whether the combinations could sustain clonal survival of the cells. Fixed amounts of laminin-521 were used for the cell culture dish coating in combination with titrated E-Cadherin.
Additional tests were performed to test the effects of various modifications to the mTeSR1 medium. A mixture of E-Cadherin to laminin-521 in a ratio of about 1:10 w/w was used to coat the plates. […] Time-lapse photography of the cells confirmed that laminin-521/E-Cadherin coatings facilitated cell survival through proliferation of the single cells, not through the aggregation of different cells.

The test system of series [3] is phosphorylated myosin light chain (P-MLC). The series can be described thus: Western blot of phosphorylated myosin light chain. The class given is cell-based, human. Particulars: one and six hours after plating. As to the method:
HS 181 cells were trypsinized into single cell suspension as described above. For inhibition experiments, the cells were kept in O3 medium with blocking antibodies or pathway inhibitors for 30 minutes and then 450K cells were plated on 35 mm dishes precoated with the appropriate matrix coating. For other experiments, same number of cells was plated directly after trypsinization. […] After two washings in ice-cold PBS, the plates with cells were snap frozen in liquid nitrogen and stored at −80° C. To prepare samples for western blots and ELISA, the plates were slowly thawed and kept on ice with 100-150 μl of lysis buffer (50 mM Tris-HCl, pH7.5, 150 mM NaCl, 0.5% deoxycholate, 0.5% SDS, 1% Triton X-100, 1% Igepal, Complete™ (Roche) and Phospho-Stop™ (Roche)) on top. Then, the cells were scraped, pipetted and sheared through a 27G ¾″ needle. After that, the cell pellets were clarified by centrifugation at 16,100 rcf for 15 minutes at 4° C. For western blots, 4-12% gradient gels were used for SDS electrophoresis and the proteins were transferred to PVDF membranes. The membrane was hybridized with the antibody of interest according to the manufacturer's instructions. Chemoluminescent HRP-substrate from Amersham Biosciences was used for visualization. For the densitometry analysis the films were scanned at 2,400 dpi and analyzed by the Chemilmager5500 program (1D-Multi Line densitometry mode). […]

Series [4] deals with hES cells. Briefly: In vivo imaging and migration assay. The class given is cell-based, human. As to the method: 24-well plates were coated by extracellular matrix proteins and blocked by O3 medium containing bovine serum albumin. The ES cells were plated at cell density of 30,000-40,000 cells/cm^2 onto extracellular matrix-coated plates and left to adhere for half an hour in a cell incubator. After that, the plate was transferred into high content imaging system Operetta (PerkinElmer) equipped with environmental control unit, which allowed to keep 37° C., 5% CO2. For two movies that were made, the brightfield images were taken once in 15 minutes during 24 hours after plating using Harmony software (PerkinElmer), exported, and analyzed using ImageJ software (NIH, the US). For migration assay the images were taken every seven minutes during 18 hours after plating. Images acquired between the fifth and seventh hours after plating were analyzed using MTrackJ plug-in (University Medical Center, Rotterdam, The Netherlands). 100 attached cells on each coating were traced and mean distances from the current to the previous point of the track were calculated. Error bars show standard error of the mean s.e.m. (n=100).

In another series the test system is hES cell lines. The series can be described thus: Karyotyping. The conditions noted are these: HS181 12 passages and H1 10 passages in O3 medium; H1 7 passages in TeSR2. Format: cell-based, human. As to the method: Karyotyping of the cell lines was carried out using standard Q-banding techniques. Samples of cells were treated with colcemid KaryoMAX (0.1 μg/ml; Gibco Invitrogen Corporation) for up to 4 hours, followed by dissociation with Trypsin/EDTA solution (Gibco Invitrogen Corporation). The cells were pelleted via centrifugation and re-suspended in pre-warmed 0.0375 M KCl hypotonic solution and incubated for 10 minutes. Following centrifugation, the cells were resuspended in fixative (3:1 methanol:acetic acid). Metaphase spreads were prepared on glass microscope slides and G-banded by brief exposure to trypsin and stained with 4:1 Gurr's/Leishmann's stain (Sigma-Aldrich Co.). A minimum of 10 metaphase spreads were analyzed and additional 20 were counted.

Series [5] concerns human ES cells. The series can be described thus: Cell adhesion / single cell survival 1 day after plating (Example 1). Particulars: for adhesion at 1 day compared with dishes including the ROCK inhibitor: coating without additives. Format: cell-based. As to the method: as §1, §2
The next series deals with Oct4 and Nanog mRNA. The series can be described thus: Real-time quantitative RT-PCR of pluripotency markers (Example 1). The class given is cell-based, human. The conditions noted are these: after several passages. As to the method: Total RNA was isolated and cDNA was synthesized as described in Rodin et al., Nature Biotechnol., vol. 28, pp. 611-615 (2010). Real-time quantitative RT-PCR Taqman assays were performed using the Applied Biosystems 7300 Real-Time PCR System. All reactions were done in quadruplicate with predeveloped gene expression assay mix (Applied Biosystems) containing primers and a probe for the mRNA of interest. Additional reactions for each experiment included predeveloped gene expression assay mix for GAPDH, used to normalize the RNA input. All data were analyzed with 7300 System SDS Software version 1.4.

A further series concerns human ES and iPS cells. Briefly: Long-term self-renewal culture on LN-521 (Example 2). Format: cell-based.

Consider “LN-521: protein formed by joining α5, β2 and γ1 laminin chains; human recombinant, produced in HEK293 cells”, for which, in the series with human ES cells [1], the “adhesion of human ES cells at 1 hour” value is “roughly the same”. Also, in the series with Integrin α6β1, the “binding affinity of integrin α6β1 compared with LN-111” value was “higher”. In addition, in the series on hES cells [2], the “clonal survival of individualized hES cells” value is “Neither laminin-521 nor E-Cadherin alone permitted efficient clonal survival”. Besides, the “phosphorylation of MLC compared with cells on Matrigel and LN-111” value in series [3] is given as “even higher”. Moreover, in the series on hES cells [4] (between the fifth and seventh hours after plating), the “motility of hES cells compared with other coatings” value was “higher”. For the same substance, in the series on hES cells [4] (in vivo imaging), the “migration of cells compared with Matrigel (imaging)” value is recorded as “much faster”. Moreover, the karyotype entry in the series with hES cell lines is recorded as “normal”. Also, the “adhesion at 1 day compared with dishes including the ROCK inhibitor” value in the series on human ES cells [5] was “similar”; in the series on human ES cells [5] (listed as LN-532), “no ROCK inhibitor is necessary”. In addition, in the series on human ES cells [5] (completely dissociated H5181 cells, O3 medium without any additives, no ROCK inhibitor), the “cells remaining attached / surviving 24 hours after plating” value is recorded as “survived”. Further, in the series on human ES cells [5] (without additives), the “adhesion at 1 day relative to Matrigel without additives” value was 20 times. For the same substance, the “number of mRNA transcripts of Oct4 and Nanog compared with Matrigel” value with Oct4 and Nanog mRNA is listed as “higher numbers of transcripts”. The passages cultured was found to be 3 passages in the series on human ES and iPS cells (ChiPSW cells, mTeSR1); 5 passages with human ES and iPS cells (CutB1.2 iPS cells, mTeSR1); 12 passages in the series with human ES and iPS cells (H1 cells, TeSR2 (5 months)); 4 passages in the series with human ES and iPS cells (HS401 cells, TeSR2 (1.5 months)). Moreover, the passages of proliferation with human ES and iPS cells (H1 cells, O3 medium (6 months)) is no less than 15 passages; with human ES and iPS cells (HS181 cells, O3 medium (9 months)), “at least 24 passages”; in the series with human ES and iPS cells (HS401 cells, O3 medium (2 months)), no less than 5 passages.
